Experimental data: ChEMBL document CHEMBL1139670, “Novel 4-N-substituted aryl pent-2-ene-1,4-dione derivatives of piperazinyloxazolidinones as antibacterials” (2006)
≈ marks a conversion by molar mass, not a printed value. Calls of active or inactive are those of the source. No cut-off for these calls is given here.

Key:
Type in all cases: functional
Bacillus pumilus = assay: Antibacterial activity against Bacillus pumilus ATCC 14348
[1] = system: Staphylococcus epidermidis; assay: Antibacterial activity against Staphylococcus epidermidis ATCC 155
Enterococcus faecalis [2] = assay: Antibacterial activity against Enterococcus faecalis ATCC 35550
Staphylococcus aureus [3] = assay: Antibacterial activity against Staphylococcus aureus ATCC 25923
Staphylococcus aureus [4] = assay: Antibacterial activity against Staphylococcus aureus ATCC 9144
Staphylococcus aureus [5] = assay: Antibacterial activity against Staphylococcus aureus ATCC 14154
Staphylococcus aureus [6] = assay: Antibacterial activity against Staphylococcus aureus ATCC 29213
Staphylococcus aureus [7] = assay: Antibacterial activity against methicillin-resistant Staphylococcus aureus ATCC 700699
Streptococcus pyogenes = assay: Antibacterial activity against Streptococcus pyogenes ATCC 14289
Staphylococcus aureus [8] = assay: Antibacterial activity against linezolid-resistant Staphylococcus aureus NRS 119
Enterococcus faecalis [9] = assay: Antibacterial activity against Enterococcus faecalis ATCC 14506
Enterococcus faecalis [10] = assay: Antibacterial activity against vancomycin-resistant Enterococcus faecalis ATCC 700802
Streptococcus pneumoniae = assay: Antibacterial activity against penicillin-resistant Streptococcus pneumoniae ATCC 700904

## CC(=O)NC[C@H]1CN(c2ccc(N3CCN(C(=O)/C=C/C(=O)[O-])CC3)c(F)c2)C(=O)O1.[Na+]
Bacillus pumilus
  MIC: > 16 µg/mL
[1]
  MIC: > 16 µg/mL
Enterococcus faecalis [2]
  MIC: > 16 µg/mL
Staphylococcus aureus [3]
  MIC: > 16 µg/mL

## CC(=O)NC[C@H]1CN(c2ccc(N3CCN(C(=O)/C=C/C(=O)c4cccc5ccccc45)CC3)c(F)c2)C(=O)O1
Bacillus pumilus
  MIC: 1 µg/mL (≈ 1.84 µM)
[1]
  MIC: 2 µg/mL (≈ 3.67 µM)
Enterococcus faecalis [2]
  MIC: 0.5 µg/mL (≈ 0.918 µM)
Staphylococcus aureus [3]
  MIC: 2 µg/mL (≈ 3.67 µM)
Staphylococcus aureus [4]
  MIC: 4 µg/mL (≈ 7.35 µM)
Staphylococcus aureus [5]
  MIC: 4 µg/mL (≈ 7.35 µM)
Staphylococcus aureus [6]
  MIC: 2 µg/mL (≈ 3.67 µM)
Staphylococcus aureus [7]
  MIC: 8 µg/mL (≈ 14.7 µM)
Streptococcus pyogenes
  MIC: 0.5 µg/mL (≈ 0.918 µM)
Staphylococcus aureus [8]
  MIC: > 16 µg/mL
Enterococcus faecalis [9]
  MIC: 1 µg/mL (≈ 1.84 µM)
Enterococcus faecalis [10]
  MIC: 8 µg/mL (≈ 14.7 µM)
Streptococcus pneumoniae
  MIC: 2 µg/mL (≈ 3.67 µM)

## CC(=O)NC[C@H]1CN(c2ccc(N3CCN(C(=O)CO)CC3)c(F)c2)C(=O)O1 [EPEREZOLID]
Bacillus pumilus
  MIC: 1 µg/mL (≈ 2.54 µM)
Enterococcus faecalis [2]
  MIC: 2 µg/mL (≈ 5.07 µM)
Staphylococcus aureus [3]
  MIC: 2 µg/mL (≈ 5.07 µM)
Staphylococcus aureus [4]
  MIC: 2 µg/mL (≈ 5.07 µM)
Staphylococcus aureus [5]
  MIC: 2 µg/mL (≈ 5.07 µM)
Staphylococcus aureus [6]
  MIC: 2 µg/mL (≈ 5.07 µM)
Staphylococcus aureus [7]
  MIC: 1 µg/mL (≈ 2.54 µM)
Streptococcus pyogenes
  MIC: 0.5 µg/mL (≈ 1.27 µM)
Staphylococcus aureus [8]
  MIC: > 16 µg/mL
Enterococcus faecalis [9]
  MIC: 1 µg/mL (≈ 2.54 µM)
Enterococcus faecalis [10]
  MIC: 1 µg/mL (≈ 2.54 µM)
Streptococcus pneumoniae
  MIC: 0.5 µg/mL (≈ 1.27 µM)

## CC(=O)NC[C@H]1CN(c2ccc(N3CCN(C(=O)/C=C/C(=O)c4ccc(NC(C)=O)cc4)CC3)c(F)c2)C(=O)O1
Bacillus pumilus
  MIC: 0.5 µg/mL (≈ 0.906 µM)
[1]
  MIC: ≤ 0.12 µg/mL
Enterococcus faecalis [2]
  MIC: 0.25 µg/mL (≈ 0.453 µM)
Staphylococcus aureus [3]
  MIC: 0.5 µg/mL (≈ 0.906 µM)
Staphylococcus aureus [4]
  MIC: ≤ 0.12 µg/mL
Staphylococcus aureus [5]
  MIC: ≤ 0.12 µg/mL
Staphylococcus aureus [6]
  MIC: ≤ 0.12 µg/mL
Staphylococcus aureus [7]
  MIC: 1 µg/mL (≈ 1.81 µM)
Streptococcus pyogenes
  MIC: ≤ 0.12 µg/mL
Staphylococcus aureus [8]
  MIC: > 16 µg/mL
Enterococcus faecalis [9]
  MIC: 1 µg/mL (≈ 1.81 µM)
Streptococcus pneumoniae
  MIC: inactive

## COc1ccc(C(=O)/C=C/C(=O)N2CCN(c3ccc(N4C[C@H](C/N=C(/C)S)OC4=O)cc3F)CC2)cc1
Bacillus pumilus
  MIC: 0.5 µg/mL (≈ 0.925 µM)
[1]
  MIC: 0.12 µg/mL (≈ 0.222 µM)
Enterococcus faecalis [2]
  MIC: 0.25 µg/mL (≈ 0.462 µM)
Staphylococcus aureus [3]
  MIC: 0.25 µg/mL (≈ 0.462 µM)
Staphylococcus aureus [4]
  MIC: ≤ 0.12 µg/mL
Staphylococcus aureus [5]
  MIC: 0.25 µg/mL (≈ 0.462 µM)
Staphylococcus aureus [6]
  MIC: ≤ 0.12 µg/mL
Staphylococcus aureus [7]
  MIC: 0.5 µg/mL (≈ 0.925 µM)
Streptococcus pyogenes
  MIC: 0.25 µg/mL (≈ 0.462 µM)
Staphylococcus aureus [8]
  MIC: > 16 µg/mL
Enterococcus faecalis [9]
  MIC: 1 µg/mL (≈ 1.85 µM)
Streptococcus pneumoniae
  MIC: 1 µg/mL (≈ 1.85 µM)

## CC(=O)NC[C@H]1CN(c2ccc(N3CCN(C(=O)/C=C/C(=O)c4ccc(Br)cc4)CC3)c(F)c2)C(=O)O1
Bacillus pumilus
  MIC: 0.12 µg/mL (≈ 0.209 µM)
[1]
  MIC: 0.25 µg/mL (≈ 0.436 µM)
Enterococcus faecalis [2]
  MIC: 2 µg/mL (≈ 3.49 µM)
Staphylococcus aureus [3]
  MIC: ≤ 0.12 µg/mL
Staphylococcus aureus [4]
  MIC: 4 µg/mL (≈ 6.98 µM)
Staphylococcus aureus [5]
  MIC: 2 µg/mL (≈ 3.49 µM)
Staphylococcus aureus [6]
  MIC: 4 µg/mL (≈ 6.98 µM)
Staphylococcus aureus [7]
  MIC: 4 µg/mL (≈ 6.98 µM)
Staphylococcus aureus [8]
  MIC: > 16 µg/mL
Enterococcus faecalis [9]
  MIC: 2 µg/mL (≈ 3.49 µM)
Enterococcus faecalis [10]
  MIC: > 16 µg/mL
Streptococcus pneumoniae
  MIC: 2 µg/mL (≈ 3.49 µM)

## CC(=O)/C=C/C(=O)N1CCN(c2ccc(N3C[C@H](CNC(C)=O)OC3=O)cc2F)CC1
Bacillus pumilus
  MIC: 0.5 µg/mL (≈ 1.16 µM)
[1]
  MIC: 0.25 µg/mL (≈ 0.578 µM)
Enterococcus faecalis [2]
  MIC: 1 µg/mL (≈ 2.31 µM)
Staphylococcus aureus [3]
  MIC: 0.25 µg/mL (≈ 0.578 µM)
Staphylococcus aureus [4]
  MIC: 1 µg/mL (≈ 2.31 µM)
Staphylococcus aureus [5]
  MIC: 1 µg/mL (≈ 2.31 µM)
Staphylococcus aureus [7]
  MIC: 1 µg/mL (≈ 2.31 µM)
Staphylococcus aureus [8]
  MIC: > 16 µg/mL
Enterococcus faecalis [9]
  MIC: 4 µg/mL (≈ 9.25 µM)
Enterococcus faecalis [10]
  MIC: 2 µg/mL (≈ 4.62 µM)
Streptococcus pneumoniae
  MIC: 0.5 µg/mL (≈ 1.16 µM)

## CC(=O)NC[C@H]1CN(c2ccc(N3CCN(C(=O)/C=C/c4ccccc4)CC3)c(F)c2)C(=O)O1
Bacillus pumilus
  MIC: 0.5 µg/mL (≈ 1.07 µM)
[1]
  MIC: 1 µg/mL (≈ 2.14 µM)
Enterococcus faecalis [2]
  MIC: 1 µg/mL (≈ 2.14 µM)
Staphylococcus aureus [3]
  MIC: 1 µg/mL (≈ 2.14 µM)
Staphylococcus aureus [4]
  MIC: 2 µg/mL (≈ 4.29 µM)
Staphylococcus aureus [5]
  MIC: 2 µg/mL (≈ 4.29 µM)
Staphylococcus aureus [6]
  MIC: 2 µg/mL (≈ 4.29 µM)
Staphylococcus aureus [7]
  MIC: 1 µg/mL (≈ 2.14 µM)
Streptococcus pyogenes
  MIC: 1 µg/mL (≈ 2.14 µM)
Staphylococcus aureus [8]
  MIC: > 16 µg/mL
Enterococcus faecalis [9]
  MIC: 0.5 µg/mL (≈ 1.07 µM)
Enterococcus faecalis [10]
  MIC: 0.5 µg/mL (≈ 1.07 µM)
Streptococcus pneumoniae
  MIC: 0.5 µg/mL (≈ 1.07 µM)

## CC(=O)NC[C@H]1CN(c2ccc(N3CCN(C(=O)/C=C/C(=O)c4ccccc4)CC3)c(F)c2)C(=O)O1
Bacillus pumilus
  MIC: 1 µg/mL (≈ 2.02 µM)
[1]
  MIC: 0.12 µg/mL (≈ 0.243 µM)
Enterococcus faecalis [2]
  MIC: 0.5 µg/mL (≈ 1.01 µM)
Staphylococcus aureus [3]
  MIC: ≤ 0.12 µg/mL
Staphylococcus aureus [4]
  MIC: ≤ 0.12 µg/mL
Staphylococcus aureus [5]
  MIC: ≤ 0.12 µg/mL
Staphylococcus aureus [6]
  MIC: 0.25 µg/mL (≈ 0.506 µM)
Staphylococcus aureus [7]
  MIC: ≤ 0.12 µg/mL
Streptococcus pyogenes
  MIC: 0.25 µg/mL (≈ 0.506 µM)
Staphylococcus aureus [8]
  MIC: 4 µg/mL (≈ 8.09 µM)
Enterococcus faecalis [9]
  MIC: 2 µg/mL (≈ 4.04 µM)
Enterococcus faecalis [10]
  MIC: 2 µg/mL (≈ 4.04 µM)
Streptococcus pneumoniae
  MIC: ≤ 0.12 µg/mL

## COc1ccc(C(=O)/C=C/C(=O)N2CCN(c3ccc(N4C[C@H](CNC(C)=O)OC4=O)cc3F)CC2)cc1
Bacillus pumilus
  MIC: 0.5 µg/mL (≈ 0.953 µM)
[1]
  MIC: 0.25 µg/mL (≈ 0.477 µM)
Enterococcus faecalis [2]
  MIC: 0.5 µg/mL (≈ 0.953 µM)
Staphylococcus aureus [3]
  MIC: 0.5 µg/mL (≈ 0.953 µM)
Staphylococcus aureus [4]
  MIC: 0.5 µg/mL (≈ 0.953 µM)
Staphylococcus aureus [5]
  MIC: ≤ 0.12 µg/mL
Staphylococcus aureus [6]
  MIC: 0.25 µg/mL (≈ 0.477 µM)
Staphylococcus aureus [7]
  MIC: 1 µg/mL (≈ 1.91 µM)
Streptococcus pyogenes
  MIC: ≤ 0.12 µg/mL
Staphylococcus aureus [8]
  MIC: > 16 µg/mL
Enterococcus faecalis [9]
  MIC: 1 µg/mL (≈ 1.91 µM)
Enterococcus faecalis [10]
  MIC: 2 µg/mL (≈ 3.81 µM)
Streptococcus pneumoniae
  MIC: 2 µg/mL (≈ 3.81 µM)

## CC(=O)NC[C@H]1CN(c2ccc(N3CCOCC3)c(F)c2)C(=O)O1 [LINEZOLID]
Bacillus pumilus
  MIC: 2 µg/mL (≈ 5.93 µM)
[1]
  MIC: 1 µg/mL (≈ 2.96 µM)
Staphylococcus aureus [3]
  MIC: 1 µg/mL (≈ 2.96 µM)
Staphylococcus aureus [7]
  MIC: 1 µg/mL (≈ 2.96 µM)
Streptococcus pyogenes
  MIC: 0.25 µg/mL (≈ 0.741 µM)
Staphylococcus aureus [8]
  MIC: > 16 µg/mL
Streptococcus pneumoniae
  MIC: 0.25 µg/mL (≈ 0.741 µM)
